Values after ≈ are worked out from the molar mass of the structure shown. Active and inactive are the calls of the source. No cut-off for these calls is given here.
Key:
[1] = Tmax in ICR mouse at 20 mg/kg, po administered as via gavage measured for 36 hrs by UPLC analysis; assay type: ADME, organism-based; settings: in vivo
[2] = AUC (0 to last) in ICR mouse at 20 mg/kg, iv measured for 24 hrs by UPLC analysis; assay type: ADME, organism-based; settings: in vivo
[3] = Drug level in mouse thigh infected with linezolid-resistant Staphylococcus aureus NRS119 at 40 mg/kg, po administered 1 hrs post infection and measured for 48 hrs; assay type: ADME, organism-based; settings: read-out: Drug uptake
[4] = Clearance in ICR mouse at 20 mg/kg, iv measured for 24 hrs by UPLC analysis; assay type: ADME, organism-based; settings: in vivo
[5] = tested on: Staphylococcus epidermidis; assay: Antibacterial activity against Staphylococcus epidermidis ATCC 35547 by broth microdilution method; assay type: functional
[6] = Terminal half life in ICR mouse at 20 mg/kg, po administered as via gavage measured for 36 hrs by UPLC analysis; assay type: ADME, organism-based; settings: in vivo, read-out: beta t1/2 (converted)
Staphylococcus aureus [7] = assay: Antibacterial activity against Staphylococcus aureus ATCC 27660 by broth microdilution method; assay type: functional
Enterococcus faecalis [8] = assay: Antibacterial activity against Enterococcus faecalis ATCC 29212 by broth microdilution method; assay type: functional
[9] = Hemolytic activity in human RBC relative to control; assay type: ADME, cell-based, Erythrocyte; settings: red blood cells (erythrocytes), read-out: Activity
[10] = Oral bioavailability in ICR mouse at 20 mg/kg administered as via gavage measured for 36 hrs by UPLC analysis; assay type: ADME, organism-based; settings: in vivo
Enterococcus faecium [11] = assay: Antibacterial activity against vancomycin-susceptible Enterococcus faecium 119-39A clinical isolate by broth microdilution method; assay type: functional
Staphylococcus aureus [12] = assay: Antibacterial activity against Staphylococcus aureus NRS120 by broth microdilution method; assay type: functional
Staphylococcus aureus [13] = assay: Antibacterial activity against Staphylococcus aureus NRS119 by broth microdilution method; assay type: functional
Staphylococcus aureus [14] = assay: Antibacterial activity against Staphylococcus aureus N315 (NRS70) by broth microdilution method; assay type: functional
[15] = Drug level in mouse thigh infected with linezolid-sensitive Staphylococcus aureus NRS70 at 40 mg/kg, po administered 1 hrs post infection and measured for 48 hrs; assay type: ADME, organism-based; settings: read-out: Drug uptake
[16] = Plasma protein binding in human at […] incubated for 2 hrs by UPLC analysis; assay type: ADME, cell-free; settings: read-out: PPB (converted)
[17] = AUC (0 to infinity) in ICR mouse at 20 mg/kg, po administered as via gavage measured for 36 hrs by UPLC analysis; assay type: ADME, organism-based; design: dose 20 mg/kg, route oral, time infinity; settings: in vivo
[18] = AUC (0 to infinity) in ICR mouse at 20 mg/kg, iv measured for 24 hrs by UPLC analysis; assay type: ADME, organism-based; design: dose 20 mg/kg, time infinity, route intravenous; settings: in vivo
Enterococcus faecium [19] = assay: Antibacterial activity against Enterococcus faecium NCTC 7171 by broth microdilution method; assay type: functional
Staphylococcus aureus [20] = assay: Antibacterial activity against Staphylococcus aureus ATCC 27660 infected in mouse model of peritonitis at 20 mg/kg, iv dosed at 30 mins and 7.5 hrs post infection and measured for 2 days
Staphylococcus aureus [21] = assay: Antibacterial activity against vancomycin-resistant Staphylococcus aureus VRS1 clinical isolate by broth microdilution method; assay type: functional
[22] = Distribution half life in ICR mouse at 20 mg/kg, po administered as via gavage measured for 36 hrs by UPLC analysis; assay type: ADME, organism-based; settings: in vivo, read-out: alphat1/2 (converted)
Staphylococcus aureus [23] = assay: Antibacterial activity against Staphylococcus aureus NRS100 (COL) by broth microdilution method; assay type: functional
[24] = Volume of distribution in ICR mouse at 20 mg/kg, iv measured for 24 hrs by UPLC analysis; assay type: ADME, organism-based; settings: in vivo
[25] = Terminal half life in ICR mouse at 20 mg/kg, iv measured for 24 hrs by UPLC analysis; assay type: ADME, organism-based; settings: in vivo, read-out: beta t1/2 (converted)
[26] = tested on: Staphylococcus haemolyticus; assay: Antibacterial activity against Staphylococcus haemolyticus ATCC 29970 by broth microdilution method; assay type: functional
Bacillus cereus = assay: Antibacterial activity against Bacillus cereus ATCC 13061 by broth microdilution method; assay type: functional
HepG2 = assay: Cytotoxicity against human HepG2 cells assessed as reduction in cell viability by XTT assay; assay type: cell-based
Bacillus licheniformis = assay: Antibacterial activity against Bacillus licheniformis ATCC 12759 by broth microdilution method; assay type: functional
Staphylococcus aureus [27] = assay: Antibacterial activity against linezolid-resistant Staphylococcus aureus NRS119 infected in mouse model of neutropenic thigh infection assessed as reduction in bacterial count at 40 mg/kg, po administered […]; assay type: functional
Staphylococcus aureus [28] = assay: Antibacterial activity against Staphylococcus aureus ATCC 29213 by broth microdilution method; assay type: functional
Staphylococcus aureus [29] = assay: Antibacterial activity against vancomycin-resistant Staphylococcus aureus VRS2 clinical isolate by broth microdilution method; assay type: functional
[30] = AUC (0 to last) in ICR mouse at 20 mg/kg, po administered as via gavage measured for 36 hrs by UPLC analysis; assay type: ADME, organism-based; settings: in vivo
Enterococcus faecalis [31] = assay: Antibacterial activity against vancomycin-resistant Enterococcus faecalis 99 clinical isolate by broth microdilution method; assay type: functional
[32] = Distribution half life in ICR mouse at 20 mg/kg, iv measured for 24 hrs by UPLC analysis; assay type: ADME, organism-based; settings: in vivo, read-out: alphat1/2 (converted)
Staphylococcus aureus [33] = assay: Antibacterial activity against linezolid-sensitive Staphylococcus aureus NRS70 infected in mouse model of neutropenic thigh infection assessed as reduction in bacterial count at 40 mg/kg, po administered 1 hrs post infection and measured for 48 hrs; assay type: functional
Enterococcus faecium [34] = assay: Antibacterial activity against vancomycin-resistant Enterococcus faecium 106 clinical isolate by broth microdilution method; assay type: functional
Enterococcus faecalis [35] = assay: Antibacterial activity against vancomycin-susceptible Enterococcus faecalis 201 clinical isolate by broth microdilution method; assay type: functional
[36] = Cmax in ICR mouse at 20 mg/kg, po administered as via gavage measured for 36 hrs by UPLC analysis; assay type: ADME, organism-based; design: dose 20 mg/kg, route oral; settings: in vivo

Compound: Fc1ccc(Oc2ccc(-c3noc(-c4ccc5[nH]ccc5c4)n3)cc2)cc1
- Tmax [1]: 2.5 h
- AUClast [2]: 1790 uM.min/ml
- concentration at 48 h [3]: 6400 ng/g
- clearance [4]: 7.8 mL/min/kg
- MIC [5]: 1 µg/mL (≈ 2.69 µM)
- half-life [6]: 1020 min
- MIC (Staphylococcus aureus [7]): 2 to 4 µg/mL (≈ 5.39 to 10.8 µM)
- MIC (Enterococcus faecalis [8]): 4 µg/mL (≈ 10.8 µM)
- hemolysis [9]: < 1%
- bioavailability [10]: 41%
- MIC (Enterococcus faecium [11]): 1 µg/mL (≈ 2.69 µM)
- MIC (Staphylococcus aureus [12]): 2 µg/mL (≈ 5.39 µM)
- MIC (Staphylococcus aureus [13]): 1 to 2 µg/mL (≈ 2.69 to 5.39 µM)
- MIC (Staphylococcus aureus [14]): 1 µg/mL (≈ 2.69 µM)
- concentration at 48 h [15]: 5800 ng/g
- fraction unbound at 2 h [16]: 0.012
- AUC [17]: 1040 uM.min/ml
- AUC [18]: 2570 uM.min/ml
- MIC (Enterococcus faecium [19]): 1 µg/mL (≈ 2.69 µM)
- Activity (Staphylococcus aureus [20]): Active
- MIC (Staphylococcus aureus [21]): 1 µg/mL (≈ 2.69 µM)
- half-life [22]: 372 min
- MIC (Staphylococcus aureus [23]): 2 µg/mL (≈ 5.39 µM)
- Vd [24]: 14.2 L/kg
- half-life [25]: 1270 min
- MIC [26]: 2 µg/mL (≈ 5.39 µM)
- MIC (Bacillus cereus): 4 µg/mL (≈ 10.8 µM)
- IC50 (HepG2): 37 µg/mL (≈ 99.6 µM)
- MIC (Bacillus licheniformis): 2 µg/mL (≈ 5.39 µM)
- Activity (Staphylococcus aureus [27]): 1.5 log10CFU
- MIC (Staphylococcus aureus [28]): 1 to 2 µg/mL (≈ 2.69 to 5.39 µM)
- MIC (Staphylococcus aureus [29]): 1 µg/mL (≈ 2.69 µM)
- AUClast [30]: 718 uM.min/ml
- MIC (Enterococcus faecalis [31]): 4 µg/mL (≈ 10.8 µM)
- half-life [32]: 24 min
- Activity (Staphylococcus aureus [33]): 1.1 log10CFU
- MIC (Enterococcus faecium [34]): 1 µg/mL (≈ 2.69 µM)
- MIC (Enterococcus faecalis [35]): 4 µg/mL (≈ 10.8 µM)
- Cmax [36]: 1000 ng/mL

From ChEMBL document CHEMBL4342484, “Structure-Activity Relationship for the Oxadiazole Class of Antibacterials” (ACS Med Chem Lett, 2020)
